According to the supplement of paper PMC10307832:

How the values were obtained:
Assay in all cases: relative viability (nuclei count vs DMSO), 5 days (fraction); higher = more cells survive
[1] = compound: CC(=O)c1c(C)c2cnc(Nc3ccc(N4CCNCC4)cn3)nc2n(C2CCCC2)c1=O [Palbociclib] + CC1(C)CCC(c2ccc(Cl)cc2)=C(CN2CCN(c3ccc(C(=O)NS(=O)(=O)c4ccc(N[C@H](CCN5CCOCC5)CSc5ccccc5)c(S(=O)(=O)C(F)(F)F)c4)cc3)CC2)C1 [Navitoclax] (partner 0.5 µM)
Procedure, shortened: (§1)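 Relative viability equals treated-well nuclei counts divided by vehicle-well nuclei counts. Counts came from 4× images of lung cancer cell lines grown in 1536-well plates for 5 days after pin-tool dosing on the day after seeding. Dosing used one drug alone or a fixed anchor-drug dose plus five library-drug doses (not always all listed) in √10 steps, and values are medians of duplicate plates.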

[2] = compound: CC(=O)c1c(C)c2cnc(Nc3ccc(N4CCNCC4)cn3)nc2n(C2CCCC2)c1=O [Palbociclib] + Cc1cc(Nc2cc(N3CCN(C)CC3)nc(Sc3ccc(NC(=O)C4CC4)cc3)n2)n[nH]1 [Tozasertib] (partner 0.1 µM)
Procedure, shortened: as §1

[3] = compound: CC(=O)c1c(C)c2cnc(Nc3ccc(N4CCNCC4)cn3)nc2n(C2CCCC2)c1=O [Palbociclib] + N=C(N)NC(=N)NCCc1ccccc1 [Phenformin] (partner 250 µM)
Procedure, shortened: as §1

[4] = compound: CC(=O)c1c(C)c2cnc(Nc3ccc(N4CCNCC4)cn3)nc2n(C2CCCC2)c1=O [Palbociclib] + NC(=O)Nc1cc(-c2cccc(F)c2)sc1C(=O)N[C@H]1CCCNC1 [AZD7762] (partner 0.2 µM)
Procedure, shortened: as §1

Cell Line: NCI-H1915
- relative viability ([1]; first compound 0.01 µM): 0.764
- relative viability ([1]; first compound 0.03162 µM): 0.733
- relative viability ([1]; first compound 0.1 µM): 0.771
- relative viability ([1]; first compound 0.3162 µM): 0.782
- relative viability ([1]; first compound 1 µM): 0.763
- relative viability ([2]; first compound 0.01 µM): 0.435
- relative viability ([2]; first compound 0.03162 µM): 0.36
- relative viability ([2]; first compound 0.1 µM): 0.48
- relative viability ([2]; first compound 0.3162 µM): 0.471
- relative viability ([2]; first compound 1 µM): 0.452
- relative viability ([3]; first compound 0.01 µM): 0.365
- relative viability ([3]; first compound 0.03162 µM): 0.308
- relative viability ([3]; first compound 0.1 µM): 0.37
- relative viability ([3]; first compound 0.3162 µM): 0.346
- relative viability ([3]; first compound 1 µM): 0.323
- relative viability ([4]; first compound 0.01 µM): 0.685
- relative viability ([4]; first compound 0.1 µM): 0.718
- relative viability ([4]; first compound 0.3162 µM): 0.649
- relative viability ([4]; first compound 1 µM): 0.608

Cell Line: NCI-H1395
- relative viability ([1]; first compound 0.01 µM): 1.22
- relative viability ([1]; first compound 0.03162 µM): 1.17
- relative viability ([1]; first compound 0.1 µM): 0.924
- relative viability ([1]; first compound 0.3162 µM): 0.943
- relative viability ([1]; first compound 1 µM): 0.656
- relative viability ([2]; first compound 0.01 µM): 0.791
- relative viability ([2]; first compound 0.03162 µM): 0.709
- relative viability ([2]; first compound 0.1 µM): 0.627
- relative viability ([2]; first compound 0.3162 µM): 0.676
- relative viability ([2]; first compound 1 µM): 0.635
- relative viability ([3]; first compound 0.01 µM): 0.408
- relative viability ([3]; first compound 0.03162 µM): 0.408
- relative viability ([3]; first compound 0.1 µM): 0.368
- relative viability ([3]; first compound 0.3162 µM): 0.412
- relative viability ([3]; first compound 1 µM): 0.41
- relative viability ([4]; first compound 0.01 µM): 0.428
- relative viability ([4]; first compound 0.03162 µM): 0.406
- relative viability ([4]; first compound 0.1 µM): 0.406
- relative viability ([4]; first compound 0.3162 µM): 0.453
- relative viability ([4]; first compound 1 µM): 0.407

Cell Line: NCI-H2126
- relative viability ([1]; first compound 0.01 µM): 0.861
- relative viability ([1]; first compound 0.03162 µM): 0.848
- relative viability ([1]; first compound 0.1 µM): 0.743
- relative viability ([1]; first compound 0.3162 µM): 0.745
- relative viability ([1]; first compound 1 µM): 0.561
- relative viability ([2]; first compound 0.01 µM): 0.837
- relative viability ([2]; first compound 0.03162 µM): 0.746
- relative viability ([2]; first compound 0.1 µM): 0.531
- relative viability ([2]; first compound 0.3162 µM): 0.542
- relative viability ([2]; first compound 1 µM): 0.363
- relative viability ([3]; first compound 0.01 µM): 0.494
- relative viability ([3]; first compound 0.03162 µM): 0.418
- relative viability ([3]; first compound 0.1 µM): 0.381
- relative viability ([3]; first compound 0.3162 µM): 0.413
- relative viability ([3]; first compound 1 µM): 0.392
- relative viability ([4]; first compound 0.01 µM): 0.937
- relative viability ([4]; first compound 0.03162 µM): 0.848
- relative viability ([4]; first compound 0.1 µM): 0.8
- relative viability ([4]; first compound 0.3162 µM): 0.732
- relative viability ([4]; first compound 1 µM): 0.584

Cell Line: NCI-H1651
- relative viability ([1]; first compound 0.01 µM): 1.13
- relative viability ([1]; first compound 0.03162 µM): 0.986
- relative viability ([1]; first compound 0.1 µM): 0.907
- relative viability ([1]; first compound 0.3162 µM): 0.992
- relative viability ([1]; first compound 1 µM): 0.736
- relative viability ([2]; first compound 0.01 µM): 0.749
- relative viability ([2]; first compound 0.03162 µM): 0.603
- relative viability ([2]; first compound 0.1 µM): 0.665
- relative viability ([2]; first compound 0.3162 µM): 0.617
- relative viability ([2]; first compound 1 µM): 0.685
- relative viability ([3]; first compound 0.01 µM): 0.342
- relative viability ([3]; first compound 0.03162 µM): 0.332
- relative viability ([3]; first compound 0.1 µM): 0.308
- relative viability ([3]; first compound 0.3162 µM): 0.337
- relative viability ([3]; first compound 1 µM): 0.256
- relative viability ([4]; first compound 0.01 µM): 0.484
- relative viability ([4]; first compound 0.03162 µM): 0.394
- relative viability ([4]; first compound 0.1 µM): 0.474
- relative viability ([4]; first compound 0.3162 µM): 0.464
- relative viability ([4]; first compound 1 µM): 0.425

Cell Line: NCI-H727
- relative viability ([1]; first compound 0.01 µM): 0.429
- relative viability ([1]; first compound 0.03162 µM): 0.406
- relative viability ([1]; first compound 0.1 µM): 0.324
- relative viability ([1]; first compound 0.3162 µM): 0.266
- relative viability ([1]; first compound 1 µM): 0.326
- relative viability ([2]; first compound 0.01 µM): 0.589
- relative viability ([2]; first compound 0.03162 µM): 0.482
- relative viability ([2]; first compound 0.1 µM): 0.52
- relative viability ([2]; first compound 0.3162 µM): 0.529
- relative viability ([2]; first compound 1 µM): 0.405
- relative viability ([3]; first compound 0.01 µM): 0.472
- relative viability ([3]; first compound 0.03162 µM): 0.453
- relative viability ([3]; first compound 0.1 µM): 0.422
- relative viability ([3]; first compound 0.3162 µM): 0.467
- relative viability ([3]; first compound 1 µM): 0.362
- relative viability ([4]; first compound 0.01 µM): 0.593
- relative viability ([4]; first compound 0.03162 µM): 0.511
- relative viability ([4]; first compound 0.1 µM): 0.584
- relative viability ([4]; first compound 0.3162 µM): 0.447
- relative viability ([4]; first compound 1 µM): 0.461

Cell Line: NCI-H460
- relative viability ([1]; first compound 0.01 µM): 1.08
- relative viability ([1]; first compound 0.03162 µM): 0.944
- relative viability ([1]; first compound 0.1 µM): 0.912
- relative viability ([1]; first compound 0.3162 µM): 0.662
- relative viability ([1]; first compound 1 µM): 0.175
- relative viability ([2]; first compound 0.01 µM): 0.33
- relative viability ([2]; first compound 0.03162 µM): 0.0915
- relative viability ([2]; first compound 0.1 µM): 0.563
- relative viability ([2]; first compound 0.3162 µM): 0.486
- relative viability ([2]; first compound 1 µM): 0.467
- relative viability ([3]; first compound 0.01 µM): 0.537
- relative viability ([3]; first compound 0.03162 µM): 0.411
- relative viability ([3]; first compound 0.1 µM): 0.409
- relative viability ([3]; first compound 0.3162 µM): 0.333
- relative viability ([3]; first compound 1 µM): 0.149
- relative viability ([4]; first compound 0.01 µM): 0.591
- relative viability ([4]; first compound 0.03162 µM): 0.512
- relative viability ([4]; first compound 0.1 µM): 0.557
- relative viability ([4]; first compound 0.3162 µM): 0.484
- relative viability ([4]; first compound 1 µM): 0.178

Cell Line: NCI-H3122
- relative viability ([1]; first compound 0.01 µM): 0.941
- relative viability ([1]; first compound 0.03162 µM): 0.982
- relative viability ([1]; first compound 0.1 µM): 0.921
- relative viability ([1]; first compound 0.3162 µM): 0.757
- relative viability ([1]; first compound 1 µM): 0.618
- relative viability ([2]; first compound 0.01 µM): 0.344
- relative viability ([2]; first compound 0.03162 µM): 0.212
- relative viability ([2]; first compound 0.1 µM): 0.231
- relative viability ([2]; first compound 0.3162 µM): 0.234
- relative viability ([2]; first compound 1 µM): 0.143
- relative viability ([3]; first compound 0.01 µM): 0.353
- relative viability ([3]; first compound 0.03162 µM): 0.323
- relative viability ([3]; first compound 0.1 µM): 0.279
- relative viability ([3]; first compound 0.3162 µM): 0.282
- relative viability ([3]; first compound 1 µM): 0.167
- relative viability ([4]; first compound 0.01 µM): 0.927
- relative viability ([4]; first compound 0.03162 µM): 0.82
- relative viability ([4]; first compound 0.1 µM): 0.897
- relative viability ([4]; first compound 0.3162 µM): 0.715
- relative viability ([4]; first compound 1 µM): 0.347

Cell Line: CAL-12T
- relative viability ([1]; first compound 0.01 µM): 1.23
- relative viability ([1]; first compound 0.03162 µM): 1.01
- relative viability ([1]; first compound 0.1 µM): 0.896
- relative viability ([1]; first compound 0.3162 µM): 0.848
- relative viability ([1]; first compound 1 µM): 0.767
- relative viability ([2]; first compound 0.01 µM): 0.294
- relative viability ([2]; first compound 0.03162 µM): 0.307
- relative viability ([2]; first compound 0.1 µM): 0.305
- relative viability ([2]; first compound 0.3162 µM): 0.259
- relative viability ([2]; first compound 1 µM): 0.271
- relative viability ([3]; first compound 0.01 µM): 0.603
- relative viability ([3]; first compound 0.03162 µM): 0.475
- relative viability ([3]; first compound 0.1 µM): 0.429
- relative viability ([3]; first compound 0.3162 µM): 0.421
- relative viability ([3]; first compound 1 µM): 0.324
- relative viability ([4]; first compound 0.01 µM): 0.646
- relative viability ([4]; first compound 0.03162 µM): 0.569
- relative viability ([4]; first compound 0.1 µM): 0.516
- relative viability ([4]; first compound 0.3162 µM): 0.51
- relative viability ([4]; first compound 1 µM): 0.409
